According to ChEMBL document CHEMBL3745694, “Total synthesis and cytotoxic activities of longamide B, longamide B methyl ester, hanishin, and their analogues” (Bioorg Med Chem Lett, 2016):

Tests used:
A549 = experiment: Cytotoxicity against human A549 cells after 72 hrs by CCK-8 assay; format: functional, cell-based; settings: A549, 72 h
[1] = Cytotoxicity against human PC3 cells after 72 hrs by CCK-8 assay; format: functional, cell-based; settings: PC-3, 72 h

| Compound | IC50 (A549) [µM] | IC50 [1] [µM] |
| --- | --- | --- |
| COC(=O)CC1CNC(=O)c2cccn21 (configuration not stated) | > 200 | > 200 |
| COC(=O)CC1CNC(=O)c2ccc(Br)n21 (configuration not stated) | 65 | 70 |
| CCOC(=O)CC1CNC(=O)c2ccc(Br)n21 (configuration not stated) | 32 | 29 |
| COC(=O)Cc1c[nH]c(=O)c2ccc(Br)n12 | 165 | 176 |
| O=C(O)CC1CNC(=O)c2ccc(Br)n21 (configuration not stated) | > 200 | > 200 |
| COC(=O)Cc1c[nH]c(=O)c2cccn12 | > 200 | > 200 |
| COC(=O)Cc1c[nH]c(=O)c2cc(Br)c(Br)n12 | > 200 | > 200 |
| CCOC(=O)CC1CNC(=O)c2cc(Br)c(Br)n21 (racemic) | 41 | 39 |
| O=C(O)CC1CNC(=O)c2cc(Br)c(Br)n21 (racemic) | > 200 | > 200 |
| COC(=O)CC1CNC(=O)c2cc(Br)c(Br)n21 (racemic) | 82 | 79 |
| CO[C@@]12[C@H](COC(N)=O)C3=C(C(=O)C(C)=C(N)C3=O)N1C[C@@H]1N[C@@H]12 [MITOMYCIN] | 1.7 | 1.4 |
